# Data as given in patent US10844077B2, “Thiazolyl-containing compounds for treating proliferative diseases” (Dana-Farber Cancer Institute, Inc., priority 2014, dated 2020).
# “And” between values parts separate entries of the source, which are not always exact repeats. Equal values may be shown once. Read-outs that look alike come from different tables or passages of the source.
# Experiments:
# Format in all cases: cell-based
# [1] = molecular target: kinases in BCWM.1 cells (Homo sapiens, UniProt Q04759); test: KINATIV assay of compounds I-3 and I-9, lysate directly labeled with ATP-biotin probe (no GF); conditions: PKCt; ATP Loop; 1 μM, 90 min; no GF
# Protocol: (§1) The cells were harvested and lysed. […] Bound kinases were identified and quantitated by ACTIVX as described in Patricelli et al., Biochemistry, 2007, 46(2): 350-358. The compounds were tested in duplicates against duplicate or quadruplicate control samples.
# [2] = molecular target: kinases in BCWM.1 cells (Homo sapiens, UniProt P06493); test: as above; conditions: CDC2; Protein Kinase Domain; 1 μM; no GF
# Protocol: as §1
# [3] = molecular target: kinases in BCWM.1 cells (Homo sapiens, UniProt O75582); test: as above; conditions: MSK1 domain1; Lys2; 1 μM; no GF
# Protocol: as §1
# [4] = molecular target: kinases in BCWM.1 cells (Homo sapiens, UniProt P06239); test: as above; conditions: LCK; Activation Loop; 1 μM; no GF
# Chain of kinases in BCWM.1 cells (Homo sapiens, UniProt P06239) (P06239 2-509 limits assumed): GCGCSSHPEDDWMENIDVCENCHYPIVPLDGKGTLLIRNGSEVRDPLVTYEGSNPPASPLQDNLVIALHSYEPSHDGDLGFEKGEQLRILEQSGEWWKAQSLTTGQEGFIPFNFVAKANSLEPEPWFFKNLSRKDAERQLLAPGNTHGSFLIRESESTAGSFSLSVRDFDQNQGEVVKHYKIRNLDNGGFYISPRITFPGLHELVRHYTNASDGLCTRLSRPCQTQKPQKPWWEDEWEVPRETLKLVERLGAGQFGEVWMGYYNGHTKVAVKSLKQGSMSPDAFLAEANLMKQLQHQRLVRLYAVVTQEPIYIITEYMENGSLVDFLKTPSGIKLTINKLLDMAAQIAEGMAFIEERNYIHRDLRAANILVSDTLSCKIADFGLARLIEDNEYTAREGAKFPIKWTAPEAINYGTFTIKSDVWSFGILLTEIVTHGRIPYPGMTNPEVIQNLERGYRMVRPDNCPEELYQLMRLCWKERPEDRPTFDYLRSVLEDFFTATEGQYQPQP
# Protocol: as §1
# [5] = molecular target: T1, kinases in BCWM.1 cells (Homo sapiens, UniProt Q96GX5); test: as above; conditions: MASTL, 1 μM, no GF
# Protocol: as §1
# [6] = molecular target: kinases in BCWM.1 cells (Homo sapiens, UniProt Q12851); test: as above; conditions: GCK; Lys2; 1 μM; no GF
# Protocol: as §1
# [7] = molecular target: kinases in BCWM.1 cells (Homo sapiens, UniProt Q16566); test: as above; conditions: CaMK4; Lys2; 1 μM; no GF
# Protocol: as §1
# [8] = molecular target: T2, kinases in BCWM.1 cells (Homo sapiens, UniProt O00506); test: as above; conditions: YSK1; Lys1; 1 μM, 90 min; no GF
# Protocol: as §1
# [9] = molecular target: kinases in BCWM.1 cells (Homo sapiens, UniProt P49760); conditions: CLK2; Lys2; 1 μM; GF
# Protocol: as §1
# [10] = molecular target: kinases in BCWM.1 cells (Homo sapiens, UniProt O15111); conditions: IKKa; Lys2; 1 μM; GF
# Protocol: as §1
# [11] = molecular target: kinases in BCWM.1 cells (Homo sapiens, UniProt Q8IVH8); conditions: KHS2; Lys1; 1 μM; GF
# Protocol: as §1
# [12] = molecular target: kinases in BCWM.1 cells (Homo sapiens, UniProt P50613); conditions: CDK7; Lys2; 1 μM; GF
# Chain of kinases in BCWM.1 cells (Homo sapiens, UniProt P50613) (P50613 2-346 limits assumed): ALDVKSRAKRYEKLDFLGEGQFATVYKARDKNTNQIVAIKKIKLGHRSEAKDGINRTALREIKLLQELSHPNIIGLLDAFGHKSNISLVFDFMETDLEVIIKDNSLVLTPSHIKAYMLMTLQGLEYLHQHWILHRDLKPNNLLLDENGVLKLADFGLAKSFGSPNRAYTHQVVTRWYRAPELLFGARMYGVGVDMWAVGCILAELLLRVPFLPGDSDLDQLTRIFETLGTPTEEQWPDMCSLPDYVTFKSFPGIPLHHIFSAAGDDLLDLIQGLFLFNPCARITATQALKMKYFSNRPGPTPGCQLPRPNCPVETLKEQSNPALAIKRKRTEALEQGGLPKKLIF
# Protocol: as §1
# [13] = molecular target: kinases in BCWM.1 cells (Homo sapiens, UniProt Q13535); conditions: ATR; ATP; 1 μM; GF
# Protocol: as §1
# [14] = molecular target: kinases in BCWM.1 cells (Homo sapiens, UniProt P45985); conditions: MAP2K4; Lys2; 1 μM; GF
# Chain of kinases in BCWM.1 cells (Homo sapiens, UniProt P45985) (P45985 2-399 limits assumed): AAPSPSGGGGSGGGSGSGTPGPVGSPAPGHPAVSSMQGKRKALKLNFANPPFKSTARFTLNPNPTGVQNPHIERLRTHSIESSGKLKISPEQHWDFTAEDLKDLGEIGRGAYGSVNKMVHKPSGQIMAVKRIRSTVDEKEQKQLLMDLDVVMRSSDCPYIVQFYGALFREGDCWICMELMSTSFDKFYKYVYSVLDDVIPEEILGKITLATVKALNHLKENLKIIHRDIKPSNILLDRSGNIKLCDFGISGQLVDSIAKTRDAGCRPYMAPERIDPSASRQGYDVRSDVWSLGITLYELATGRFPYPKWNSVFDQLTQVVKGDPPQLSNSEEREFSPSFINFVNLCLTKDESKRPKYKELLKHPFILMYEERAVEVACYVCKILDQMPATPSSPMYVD
# Protocol: as §1
# [15] = molecular target: kinases in BCWM.1 cells (Homo sapiens, UniProt P49761); conditions: CLK3; ATP Loop; 1 μM; GF
# Protocol: as §1
# [16] = molecular target: T2, kinases in BCWM.1 cells; conditions: YSK1; Lys1; 1 μM, 90 min; GF
# Protocol: as §1
# [17] = molecular target: kinases in BCWM.1 cells (Homo sapiens, UniProt P27448); conditions: MARK3; Lys1; 1 μM; GF
# Protocol: as §1
# [18] = molecular target: T1, kinases in BCWM.1 cells; conditions: MASTL, 1 μM, GF
# Protocol: as §1
# [19] = molecular target: kinases in BCWM.1 cells (Homo sapiens, UniProt P27361); conditions: Erk1; Lys2; 1 μM; GF
# Chain of kinases in BCWM.1 cells (Homo sapiens, UniProt P27361) (P27361 2-379 limits assumed): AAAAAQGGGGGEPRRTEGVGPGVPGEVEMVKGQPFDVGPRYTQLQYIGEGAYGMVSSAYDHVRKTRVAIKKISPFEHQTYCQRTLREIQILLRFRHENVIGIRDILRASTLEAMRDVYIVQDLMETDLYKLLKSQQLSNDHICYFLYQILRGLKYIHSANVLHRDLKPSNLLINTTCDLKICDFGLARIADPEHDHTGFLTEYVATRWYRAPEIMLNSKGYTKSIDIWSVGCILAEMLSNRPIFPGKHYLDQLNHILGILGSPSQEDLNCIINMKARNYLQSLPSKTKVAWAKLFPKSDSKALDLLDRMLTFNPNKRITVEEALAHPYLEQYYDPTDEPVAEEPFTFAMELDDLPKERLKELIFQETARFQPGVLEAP
# Protocol: as §1
# [20] = molecular target: kinases in BCWM.1 cells (Homo sapiens, UniProt P54762); conditions: EphB1; Activation Loop; 1 μM; GF
# Chain of kinases in BCWM.1 cells (Homo sapiens, UniProt P54762) (P54762 18-984 limits assumed): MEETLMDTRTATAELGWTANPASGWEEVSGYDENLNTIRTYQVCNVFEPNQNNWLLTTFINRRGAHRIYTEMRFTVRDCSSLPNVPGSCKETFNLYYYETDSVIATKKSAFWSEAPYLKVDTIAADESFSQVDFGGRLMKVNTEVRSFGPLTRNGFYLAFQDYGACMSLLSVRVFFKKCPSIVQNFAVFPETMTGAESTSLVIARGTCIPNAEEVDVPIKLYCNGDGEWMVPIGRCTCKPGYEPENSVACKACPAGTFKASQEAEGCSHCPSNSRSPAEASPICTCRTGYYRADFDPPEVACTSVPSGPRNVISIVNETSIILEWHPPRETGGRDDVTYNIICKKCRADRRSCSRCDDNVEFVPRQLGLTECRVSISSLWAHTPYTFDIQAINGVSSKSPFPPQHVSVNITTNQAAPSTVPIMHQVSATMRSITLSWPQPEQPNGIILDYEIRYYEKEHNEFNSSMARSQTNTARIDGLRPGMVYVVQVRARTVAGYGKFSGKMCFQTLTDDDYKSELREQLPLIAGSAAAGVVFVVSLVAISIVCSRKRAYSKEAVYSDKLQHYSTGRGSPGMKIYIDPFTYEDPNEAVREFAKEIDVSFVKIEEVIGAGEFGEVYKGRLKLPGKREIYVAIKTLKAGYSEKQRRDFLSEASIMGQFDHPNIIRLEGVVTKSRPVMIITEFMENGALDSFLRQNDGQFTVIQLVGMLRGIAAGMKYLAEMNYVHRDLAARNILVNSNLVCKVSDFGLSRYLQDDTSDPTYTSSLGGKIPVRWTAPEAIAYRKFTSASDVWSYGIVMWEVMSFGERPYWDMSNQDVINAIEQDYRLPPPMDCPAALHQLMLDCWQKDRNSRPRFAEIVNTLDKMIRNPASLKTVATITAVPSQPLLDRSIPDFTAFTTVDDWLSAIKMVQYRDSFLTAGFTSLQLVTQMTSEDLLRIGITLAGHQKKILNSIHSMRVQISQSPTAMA
# Protocol: as §1
# [21] = molecular target: kinases in BCWM.1 cells (Homo sapiens, UniProt Q16659); conditions: Erk3; Lys2; 1 μM; GF
# Protocol: as §1
# [22] = molecular target: kinases in BCWM.1 cells (Homo sapiens, UniProt P23743); conditions: DGKA; ATP; 1 μM; GF
# Protocol: as §1
# [23] = molecular target: kinases in BCWM.1 cells (Homo sapiens, UniProt Q16513); conditions: PKN2; Lys2; 1 μM, 90 min; GF
# Protocol: as §1
# [24] = molecular target: kinases in BCWM.1 cells (Homo sapiens, UniProt P51956); conditions: NEK3; Activation Loop; 1 μM, 90 min; GF
# Protocol: as §1
# [25] = system: Ramos; test: CellTiter-Glo Luminescent cell viability assay; conditions: cell survival, 72 hours
# Protocol: (§2) The inhibitory activities of exemplary compounds described herein against select protein kinases and cells were determined. Cell survival following treatment of exemplary compounds described herein was assessed by CellTiter-Glo® Luminescent cell viability assay (Promega). The cells were seeded into 384 well plates with the EL406 Combination Washer Dispenser (BioTek Instruments, Inc.), and a series diluted exemplary compounds (20˜0.0006 μM) were injected into the culture media with the JANUS Automated Workstation (PerkinElmer Inc.). The cells were treated for 72 hours at 37° C. with 5% CO2. Luminescent measurement is performed using the 2104 Envision® Multilabel Reader (PerkinElmer Inc.). EC50 values were calculated with […] PRISM software.
# [26] = system: BCWM.1; test: CellTiter-Glo Luminescent cell viability assay; conditions: cell survival, 72 hours
# Protocol: as §2
# [27] = system: HBL-1; test: CellTiter-Glo Luminescent cell viability assay; conditions: cell survival, 72 hours
# Protocol: as §2
# [28] = system: TMD-8; test: CellTiter-Glo Luminescent cell viability assay; conditions: cell survival, 72 hours
# Protocol: as §2
# [29] = system: OCI-Ly19; test: CellTiter-Glo Luminescent cell viability assay; conditions: cell survival, 72 hours
# Protocol: as §2
# [30] = system: MWCL-1; test: CellTiter-Glo Luminescent cell viability assay; conditions: cell survival, 72 hours
# Protocol: as §2
smiles,measurement,setting,value
C=CC(=O)N1CC[C@H](Nc2nccc(Nc3ncc(C(=O)Nc4c(C)cccc4C)s3)n2)C1 [Example I-3],% change of MS signal compared to control sample,[1],−5.2%
same,% change of MS signal compared to control sample,[2],−0.7% and −4.3%
same,% change of MS signal compared to control sample,[3],−2.8% and −9%
same,% change of MS signal compared to control sample,[4],92.6% and 92.7%
same,% change of MS signal compared to control sample,[5]; ATP Loop,5.3% and 6%
same,% change of MS signal compared to control sample,[5]; Lys1,16.4% and 9.8%
same,% change of MS signal compared to control sample,[6],18.1% and 17.8%
same,% change of MS signal compared to control sample,[7],6.8% and −0.1%
CCC(=O)N1CC[C@H](Nc2nccc(Nc3ncc(C(=O)Nc4c(C)cccc4C)s3)n2)C1 [Example I-9],% change of MS signal compared to control sample,[8],−11.5%
same,% change of MS signal compared to control sample,[9],−19.3% and −10.6%
same,% change of MS signal compared to control sample,[10],−3.3% and −0.4%
same,% change of MS signal compared to control sample,[11],−23.6% and −22.7%
same,% change of MS signal compared to control sample,[12],1.3% and 5.1%
same,% change of MS signal compared to control sample,[13],28.1% and 16.5%
same,% change of MS signal compared to control sample,[14],−5.4% and −2.1%
same,% change of MS signal compared to control sample,[15],−19% and −10.3%
same,% change of MS signal compared to control sample,[16],−20.8%
same,% change of MS signal compared to control sample,[17],−6.4% and −4.8%
same,% change of MS signal compared to control sample,[18]; ATP Loop,0.4% and 1.8%
same,% change of MS signal compared to control sample,[18]; Lys1,2.4% and 8%
same,% change of MS signal compared to control sample,[19],−3.1% and 3.1%
same,% change of MS signal compared to control sample,[20],53.3% and 78.9%
same,% change of MS signal compared to control sample,[21],16.9% and 25.3%
same,% change of MS signal compared to control sample,[22],−1.5% and −6.6%
same,% change of MS signal compared to control sample,[23],13.6%
same,% change of MS signal compared to control sample,[24],−3.2%
C=CC(=O)N1CCC(Cn2ccc(Nc3ncc(C(=O)Nc4c(C)cccc4Cl)s3)n2)C1 (centres unmarked) [II-1],EC50,[25],> 20 µM
same,EC50,[26],84 nM
same,EC50,[27],735 nM
same,EC50,[28],573 nM
same,EC50,[29],7.88 µM
same,EC50,[30],121 nM
